Source: ChEMBL document CHEMBL3885861, “Open TG-GATES”

Species on record: Rattus norvegicus
Experiment: Open TG-GATES - Regimen: Daily Repeat
Assay type: toxicity, organism-based, Sprague-Dawley
Parameters: regimen Daily Repeat, gender Male, age 6 weeks
Settings: in vivo, po, route gavage; for APTT / Bas / Eos / Fbg / Hb / Ht / Lym / MCH / MCHC / MCV / Mono / Neu / PT / Plat / RBC / Ret / WBC: tissue Blood; for KIDNEY_L / KIDNEY_R / KIDNEY_TOTAL: tissue Kidney; for LIVER: tissue Liver; for ALT / AST / BUN / CRE / Ca / DBIL / GLC / IP / K / LDH / Na / PL / RALB / TBIL / TC / TG / TP / gamma-GTP / ALP: tissue Plasma
[1] = 15 mg/kg, 72 h, dose level Low, time 3 day
[2] = 15 mg/kg, […], dose level Low, time 7 day
[3] = 15 mg/kg, […], dose level Low, time 14 day
[4] = 15 mg/kg, […], dose level Low, time 28 day

Compound: Oc1ncnc2[nH]ncc12 [ALLOPURINOL]
- TERMINAL_BW [1]: 242.3 g
- APTT [1]: 16.5 s
- Bas [1]: 0%
- Eos [1]: 0.8%
- Fbg [1]: 229.2 mg/dL
- Hb [1]: 13.9 g/dL
- Ht [1]: 41.8%
- Lym [1]: 81.2%
- MCH [1]: 21.5 pg
- MCHC [1]: 33.3%
- MCV [1]: 64.8 fL
- Mono [1]: 6%
- Neu [1]: 11.4%
- PT [1]: 12.1 s
- Plat [1]: 91.2 x10_4/uL
- RBC [1]: 646.4 x10_4/ul
- Ret [1]: 7%
- WBC [1]: 93.9 x10_2/uL
- KIDNEY_L [1]: 1 g
- KIDNEY_R [1]: 1 g
- KIDNEY_TOTAL [1]: 2.1 g
- LIVER [1]: 11.7 g
- ALT [1]: 33.4 IU/L
- AST [1]: 67.4 IU/L
- BUN [1]: 18.4 mg/dL
- CRE [1]: 0.5 mg/dL
- Ca [1]: 11.3 mg/dL
- DBIL [1]: 0.002 mg/dL
- GLC [1]: 193 mg/dL
- IP [1]: 8.4 mg/dL
- K [1]: 4.8 meq/L
- LDH [1]: 85.2 IU/L
- Na [1]: 139.2 meq/L
- PL [1]: 162.4 mg/dL
- RALB [1]: 3.9 g/dL
- TBIL [1]: 0.3 mg/dL
- TC [1]: 81.4 mg/dL
- TG [1]: 111 mg/dL
- TP [1]: 6.1 g/dL
- gamma-GTP [1]: 1.6 IU/L
- TERMINAL_BW [2]: 256.8 g
- TERMINAL_BW [3]: 323.2 g
- TERMINAL_BW [4]: 383.9 g
- APTT [2]: 16.7 s
- Bas [2]: 0%
- Eos [2]: 1%
- Fbg [2]: 246.6 mg/dL
- Hb [2]: 14.8 g/dL
- Ht [2]: 44.6%
- Lym [2]: 83.2%
- MCH [2]: 21.1 pg
- MCHC [2]: 33.2%
- MCV [2]: 63.5 fL
- Mono [2]: 3.4%
- Neu [2]: 12.6%
- PT [2]: 11.8 s
- Plat [2]: 112.6 x10_4/uL
- RBC [2]: 702.2 x10_4/ul
- Ret [2]: 4.6%
- WBC [2]: 108.6 x10_2/uL
- APTT [3]: 16.8 s
- Bas [3]: 0%
- Eos [3]: 0.8%
- Fbg [3]: 242.8 mg/dL
- Hb [3]: 14.6 g/dL
- Ht [3]: 44%
- Lym [3]: 81%
- MCH [3]: 20.5 pg
- MCHC [3]: 33.2%
- MCV [3]: 61.7 fL
- Mono [3]: 4.8%
- Neu [3]: 13.4%
- PT [3]: 11.7 s
- Plat [3]: 111.9 x10_4/uL
- RBC [3]: 714 x10_4/ul
- Ret [3]: 4.4%
- APTT [4]: 16.6 s
- Bas [4]: 0%
- Eos [4]: 1%
- Fbg [4]: 225.8 mg/dL
- Hb [4]: 15.4 g/dL
- Ht [4]: 46%
- Lym [4]: 83.8%
- MCH [4]: 19.4 pg
- MCHC [4]: 33.6%
- MCV [4]: 57.8 fL
- Mono [4]: 2.8%
- Neu [4]: 12.4%
- PT [4]: 12.1 s
- RBC [4]: 795.8 x10_4/ul
- Ret [4]: 2.4%
- WBC [4]: 167 x10_2/uL
- KIDNEY_L [2]: 1.2 g
- KIDNEY_R [2]: 1.2 g
- KIDNEY_TOTAL [2]: 2.3 g
- KIDNEY_L [3]: 1.3 g
- KIDNEY_R [3]: 1.3 g
- KIDNEY_TOTAL [3]: 2.6 g
- KIDNEY_L [4]: 1.4 g
- KIDNEY_R [4]: 1.4 g
- KIDNEY_TOTAL [4]: 2.9 g
- LIVER [2]: 11.7 g
- LIVER [3]: 15.3 g
- LIVER [4]: 16.6 g
- ALP [2]: 753 IU/L
- ALT [2]: 25.2 IU/L
- AST [2]: 56.6 IU/L
- BUN [2]: 21.6 mg/dL
- CRE [2]: 0.6 mg/dL
- Ca [2]: 11.3 mg/dL
- DBIL [2]: 0.012 mg/dL
- GLC [2]: 192.6 mg/dL
- IP [2]: 8.6 mg/dL
- K [2]: 4.5 meq/L
- Na [2]: 137.8 meq/L
- PL [2]: 156 mg/dL
- RALB [2]: 4.2 g/dL
- TBIL [2]: 0.3 mg/dL
- TC [2]: 81.2 mg/dL
- TG [2]: 85.2 mg/dL
- TP [2]: 6.2 g/dL
- gamma-GTP [2]: 2.4 IU/L
- ALP [3]: 823.2 IU/L
- ALT [3]: 27.2 IU/L
- AST [3]: 56.8 IU/L
- BUN [3]: 19.4 mg/dL
- CRE [3]: 0.6 mg/dL
- DBIL [3]: 0 mg/dL
- GLC [3]: 185.4 mg/dL
- IP [3]: 7.5 mg/dL
- K [3]: 4.4 meq/L
- LDH [3]: 74.8 IU/L
- Na [3]: 138.8 meq/L
- PL [3]: 158.6 mg/dL
- RALB [3]: 3.9 g/dL
- TBIL [3]: 0.2 mg/dL
- TC [3]: 69.8 mg/dL
- TG [3]: 161.6 mg/dL
- TP [3]: 6.2 g/dL
- gamma-GTP [3]: 2 IU/L
- ALP [4]: 525.8 IU/L
- ALT [4]: 29.4 IU/L
- AST [4]: 59.2 IU/L
- BUN [4]: 20.6 mg/dL
- CRE [4]: 0.6 mg/dL
- Ca [4]: 11 mg/dL
- DBIL [4]: 0.014 mg/dL
- GLC [4]: 188.4 mg/dL
- IP [4]: 6.9 mg/dL
- K [4]: 4.8 meq/L
- LDH [4]: 74.4 IU/L
- Na [4]: 139.6 meq/L
- PL [4]: 153.4 mg/dL
- RALB [4]: 4.1 g/dL
- TBIL [4]: 0.3 mg/dL
- TC [4]: 70 mg/dL
- TG [4]: 160.6 mg/dL
- TP [4]: 6.6 g/dL
- gamma-GTP [4]: 2.8 IU/L
- TERMINAL_BW (50 mg/kg, 72 h, dose level Middle, time 3 day): 239.5 g
